Entries after “also recorded” stand apart in the source; their conditions may differ. Where two headings read alike, the source gives them in different places.
How the values were obtained:
[1] = molecular target: T1, urokinase-type plasminogen activator (uPA) (Homo sapiens, UniProt P00749); assay: Determination of inhibitory activity, Ki by Dixon plotting, uPA; type: biochemical; conditions: for selectivity between matriptase and uPA (less potent for uPA than for matriptase): ratio of Ki values; for Ki: substrate N-t-Boc-Leu-Gly-Arg-AMC, pH 8.5, room temperature
T1 construct: from tissue; host or cells: human urine
Source text: (§1) Materials. Active matriptase was purified from human milk as will be described later. Active urokinase-type plasminogen activator (uPA) was purified by aminobenzamidine-Sepharose 6B (Amersham Pharmacia, Piscataway, N.J.) from a partially purified uPA from human urine. Bovin β-trypsin, bovine thrombin, and fluorescent peptide substrates N-tert-Butoxy-Carbonyl (N-t-Boc)-Gln-Ala-Arg-7-Amido-4-Methylcoumarin (AMC), N-t-Boc-Leu-Gly-Arg-AMC, and N-t-Boc-Leu-Arg-Arg-AMC were purchased from Sigma (Sigma Chemical Company, St. Louis). Small molecule inhibitors were obtained from the Drug Synthesis & Chemistry Branch, Developmental Therapeutics Program, Division of Cancer Treatment and Diagnosis, National Cancer Institute. Other chemicals are all reagent grade.
(§2) Determination of Inhibitory Activity. Inhibitory activity of compounds against each protease was measured at room temperature using fluorescent substrate peptides in 100 mM Tris-HCl (pH 8.5), containing 100 μg/ml of bovine serum albumin. To a cuvette containing 170 μl buffer was added 10 μl of enzyme solution and 10 μl of inhibitors. After pre-incubation, 10 μl of substrate was added, and the solution was mixed well by shaking the cuvette. The residual enzyme activity was then determined by following the change of fluorescence released by hydrolysis of the fluorescent substrates in a fluorescent spectrophotometer (HITACHI F4500), with excitation at 360 nm and emission at 480 nm. Peptide N-t-Boc-Gln-Ala-Arg-AMC was used as a substrate for matriptase and trypsin, peptide N-t-Boc-Leu-Gly-Arg-AMC was used as a substrate for uPA, and peptide N-t-Boc-Leu-Arg-Arg-AMC was used as a substrate for thrombin.
(§3) Kinetic Screening of Compound Inhibitors. The inhibitory activity of each compound was first investigated by using a fixed (75 μM) concentration both of inhibitor and matriptase. […] We recorded the rate of hydrolysis in duplicate in the presence of 6-7 different concentrations of each inhibitor. A straight line of the concentration of inhibitor versus the reciprocal values of the rate of hydrolysis was plotted with SigmaPlot software. Two lines were obtained from two unsaturated substrate concentrations; the X value of the intersection of these lines gives the value of −Ki.

[2] = molecular target: T2, matriptase (Homo sapiens, UniProt Q9Y5Y6); assay: Determination of inhibitory activity, Ki by Dixon plotting, matriptase; type: biochemical
T2 construct: Gels containing the 70-kDa active matriptase was sliced out, and eluted from gel; from tissue; host or cells: human milk
T2 sequence (Q9Y5Y6 615-855 limits assumed): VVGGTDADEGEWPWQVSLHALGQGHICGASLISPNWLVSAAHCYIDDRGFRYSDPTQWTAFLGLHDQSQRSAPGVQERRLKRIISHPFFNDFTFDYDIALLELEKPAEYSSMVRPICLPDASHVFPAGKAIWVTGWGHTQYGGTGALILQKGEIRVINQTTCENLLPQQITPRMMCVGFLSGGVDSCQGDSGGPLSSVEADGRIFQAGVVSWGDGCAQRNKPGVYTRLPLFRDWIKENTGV
T2 sequence (Q9Y5Y6 190-614 partner limits assumed): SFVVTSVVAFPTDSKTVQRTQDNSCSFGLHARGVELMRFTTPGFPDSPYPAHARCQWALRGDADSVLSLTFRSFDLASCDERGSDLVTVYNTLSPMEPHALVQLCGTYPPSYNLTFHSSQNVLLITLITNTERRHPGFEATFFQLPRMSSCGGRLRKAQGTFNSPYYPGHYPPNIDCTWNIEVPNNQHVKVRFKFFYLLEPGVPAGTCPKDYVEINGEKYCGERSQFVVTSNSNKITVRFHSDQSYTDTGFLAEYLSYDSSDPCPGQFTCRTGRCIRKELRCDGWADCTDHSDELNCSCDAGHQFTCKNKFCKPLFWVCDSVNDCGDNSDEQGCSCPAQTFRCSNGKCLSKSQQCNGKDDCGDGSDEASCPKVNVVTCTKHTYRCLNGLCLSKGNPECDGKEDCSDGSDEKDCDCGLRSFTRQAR
Source text: Purification of Active Form Matriptase. Activated matriptase, in a complex with its endogenous inhibitor HAI-1, was purified from human milk by immunoaffinity chromatography, and maintained in its uncomplexed status in glycine buffer pH 2.4, as described previously^11. Matritpase and HAI-1 were further separated by 10% SDS polyacryamide gel electrophoresis. The proteins were stained by Zinc stain Kit (Bio-Rad, Hercules, Calif.). Gels containing the 70-kDa active matriptase was sliced out, and eluted from gel using Electro-Eluter (Bio-Rad, Hercules, Calif.) under non-denatured conditions (Tris-Glysine buffer pH 8.3). Purified, active matriptase was then stored at −80° C. in acid solution.
as §2, §3

[3] = molecular target: T3, bovine thrombin (Bos taurus, UniProt P00735); assay: Determination of inhibitory activity, Ki by Dixon plotting, thrombin; type: biochemical; conditions: for Ki: substrate N-t-Boc-Leu-Arg-Arg-AMC, pH 8.5, room temperature
T3 construct: bovine thrombin; purchased Sigma (Sigma Chemical Company, St. Louis)
Source text: as §1, §2, §3

[4] = molecular target: T2, matriptase; assay: Matriptase enzyme activity and kinetic parameters with fluorescent peptide substrates; type: biochemical
Source text: Purification of active Matriptase_Active matriptase, in the complex form with its endogenous inhibitor HAI-1, was purified from human milk. To separate matriptase from the bound HAI-1, the complex was dissociated by acid and resolved in 10% SDS polyacryamide gel electrophoresis. The proteins were stained by Zinc stain Kit (Bio-Rad, Hercules, Calif.), the 70-kDa active matriptase was sliced out, and eluted from gel using Electro-Eluter (Bio-Rad, Hercules, Calif.) under non-denatured condition (Tris-Glysine buffer pH 8.3).
Determination of matriptase activity_The enzyme activity of matriptase was measured at room temperature in a reaction buffer containing 100 mM Tris-HCl (pH 8.5) and 100_g/ml of BSA using fluorescent peptide as substrate. In brief, 10_l of enzyme solution and 10_l of peptide substrate were added to a cuvette containing 180_l of the reaction buffer. The mixture was mixed well, placed back to a fluorescent spectrophotometer (HITACH F4500), and the release of fluorescence resulting from hydrolysis of the peptide substrate was recorded with excitation at 360 nm and emission at 480 nm.
Determination of kinetic parameter_Substrate concentration versus initial reaction velocity were analyzed by the Michaelis-Menten equation and plotted using SigmaPlot software. Double reciprocal (Lineweaver-Burk) plots thus derived were used to determine Vmax and Km values.
Table 1. Kinetic Parameters of Matriptase for Various Peptide Substrates. […], the release of fluorescence resulting from hydrolysis of the peptide was recorded in a fluorescent spectrophotometer at room temperature with excitation at 360 nm and emission at 480 nm. Km and Vmax were determined by double reciprocal plot derived from Michaelis-Menten equation: […]

[5] = tested on: PC-3 prostate cancer tumors; conditions: nude mice; cited from earlier work
[6] = read-out: Ki value against matriptase (bound stated in text)
[7] = substrate N-t-Boc-Gln-Ala-Arg-AMC, pH 8.5, room temperature, read-out: Ki Matriptase
[8] = peptide-AMC substrate hydrolysis by matriptase, room temperature

Row | Ki [1] [nM] | Ki [2, 6] [nM] | Ki [2, 7] [nM] | Ki [3] [nM] | Molecule | selectivity matriptase versus thrombin/uPA [2] | further results
1 | 14400 | < 1000 | 924 | 224 | N=C(N)c1ccc(OCCCCCCOc2ccc(C(=N)N)cc2)cc1 [Compound 1, hexamidine, reference compound] | thrombin selective | selectivity between matriptase and uPA (less potent for uPA than for matriptase) [1]: 16 fold
2 | 1980 | < 1000 | 191 | 796 | N=C(N)c1ccc(OCCCCCCOc2ccc(C(=N)N)cc2I)cc1 [Compound 2] | more selective for matriptase versus thrombin | improved potency for matriptase ([2]; compared with compound 1): approximately 5 fold; decreased potency for thrombin ([3]; compared with compound 1): approximately 4 fold
3 |  |  | 1160 |  | N=C(N)c1ccc(OCCCCCOc2ccc(C(=N)N)cc2)cc1 [Compound 3] |  | 
4 |  |  | 4500 | 28400 | N=C(N)c1ccc(/N=N/c2c(O)ccc3cc4c(/N=N/c5ccc(C(=N)N)cc5)c(O)ccc4cc23)cc1 [Compound 4] |  | 
5 | 1570 | < 1000 | 535 | 946 | N=C(N)c1ccc(OCCCOc2ccc(C(=N)N)cc2Br)c(Br)c1 [Compound 5] |  | more potent against matriptase ([2]; compared with 1 and 3): approximately 2 fold

Continued, molecule first:

Row | Molecule | Ki [1] [nM] | Ki [2, 6] [nM] | Ki [2, 7] [nM] | Ki [3] [nM] | selectivity matriptase versus thrombin/uPA [2] | further results
6 | N=C(N)c1ccc(Oc2ccc(Oc3ccc(C(=N)N)cc3)cc2)cc1 [Compound 7] | 1950 | < 1000 | 208 | 2670 | most selective inhibitor for matriptase; also recorded: matriptase selective; also recorded: most selective compound | selectivity between matriptase and uPA (less potent for uPA than for matriptase) [1]: 9 fold; selectivity between matriptase and thrombin ([3]; ratio of Ki values): 13 fold
7 | CC(=O)N[C@@H](CC(C)C)C(=O)N[C@@H](CC(C)C)C(=O)N[C@H](C=O)CCCNC(=N)N [leupeptin] |  |  |  |  |  | inhibition of matriptase enzyme activity [4]: can also inhibit matriptase enzyme activity
8 | ecotin |  |  |  |  |  | growth of PC-3 prostate cancer tumors [5]: retards the growth
9 | hexamidine [Compound 1] |  |  |  |  |  | Km [4, 8]: 4.89 µM; Vmax [4, 8]: 654 nM Amc/min

— patent publication US6677377B2, “Structure based discovery of inhibitors of matriptase for the treatment of cancer and other conditions” (Georgetown University School of Medicine, priority 2000, dated 2004)
